Measured values: patent US20110183991A1, “5HT7 RECEPTOR LIGANDS AND COMPOSITIONS COMPRISING THE SAME” (LABORATORIOS DEL DR. ESTEVE, S.A., priority 2008, published 2011)

Key:
[1] = molecular target: T1, Cloned Human Serotonin Receptor, Subtype 7 (h5HT7), expressed in CHO cells (Homo sapiens, UniProt P34969); assay: Radioligand binding assay, [125I]LSD, cloned human 5HT7 receptor on Flashplate
T1 construct: purchased PerkinElmer 6120512; host or cells: CHO cells
Method: The protocol assay was essentially the recommended protocol in the Technical Data Sheet by PerkinEmer Life and Analytical Sciences. The Mass membrane protein/well was typically 12 μg and the Receptor/well was about 9-10 fmoles. The Flashplate were let equilibrate at room temperature for one hour before the addition of the components of the assay mixture. The binding buffer was: 50 mM Tris-HCl, pH 7.4, containing 10 mM MgCl2, 0.5 mM EDTA and 0.5% BSA. […] Nonspecific binding was determined with 50 μM of Clozapine. The assay volume was 25 μl. TopSeal-A were applied onto Flashplate microplates and they were incubated at room temperature for 240 minutes in darkness.

[2] = molecular target: 5HT7 receptor (Homo sapiens, UniProt P34969); assay: 5HT7 agonist functionality (EC50 agonist); type: cell-based; details: screening data, agonist reference hit
Sequence of 5HT7 receptor (P34969 whole entry): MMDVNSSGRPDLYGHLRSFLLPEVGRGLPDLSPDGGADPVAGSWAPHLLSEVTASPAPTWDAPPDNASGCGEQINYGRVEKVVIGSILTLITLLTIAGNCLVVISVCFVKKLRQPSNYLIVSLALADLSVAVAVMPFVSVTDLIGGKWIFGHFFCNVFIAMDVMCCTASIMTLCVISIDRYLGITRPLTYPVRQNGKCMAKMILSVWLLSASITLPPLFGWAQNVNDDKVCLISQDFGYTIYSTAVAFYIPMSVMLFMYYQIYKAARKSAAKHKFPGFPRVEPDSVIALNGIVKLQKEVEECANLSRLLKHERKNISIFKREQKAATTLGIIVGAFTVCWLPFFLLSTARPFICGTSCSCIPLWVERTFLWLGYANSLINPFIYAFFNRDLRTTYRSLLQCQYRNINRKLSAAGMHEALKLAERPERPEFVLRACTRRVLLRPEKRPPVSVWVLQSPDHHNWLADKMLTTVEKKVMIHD

T1 sequence (P34969 whole entry): as above

Compound | affinity for the 5HT7 receptor (in words) [1] | EC50 [2]
COc1ccc(C(C)C)cc1CN1CCN(c2cccc3[nH]ccc23)CC1 [Ex 29, 4-(4-(5-isopropyl-2-methoxybenzyl)piperazin-1-yl)-1H-indole] | good affinity | 6.62 nM
O=C(c1cccs1)C1CN2CCC1CC2 (stereo not drawn) [l, quinuclidin-3-yl(thiophen-2-yl)methanone] | good affinity | 
